Measured values from US20090069356A1, “USE OF ANILINOPYRIMIDINES IN WOOD PROTECTION” (priority 2004, published 2009).
≈ marks a conversion by molar mass, not a printed value.

Key:
[1] = tested on: Aspergillus niger and A. carbonarius; details: vineyards; Tjamos et al., Journal of Phytopathology (2004); cited from earlier work
[2] = tested on: Aureobasidium pullulans P 268 (Ap1); assay: Poison plate assay; format: cell-based; details: 168 h, evaluated after one week
[3] = tested on: Aspergillus niger CBS 554.65 (An); assay: Poison plate assay; format: cell-based; details: CBS554, 168 h, evaluated after one week
[4] = tested on: Trichoderma viride CBS 189.79; assay: Stick test on treated Scots Pine; format: cell-based; details: 3 weeks exposure
Source text: (§1) [table] […] GA medium was used as a less nutrient-rich alternative to PDA, in order to prevent the test fungi from bypassing the specific mode of action of anilinopyrimidines like cyprodinil, pyrimethanil and […].

[5] = tested on: Aureobasidium pullulans P 268; assay: Stick test on treated Scots Pine; format: cell-based; details: 3 weeks exposure
Source text: as §1

[6] = tested on: Coriolus versicolor CTB 863A; assay: Stick test on treated Scots Pine; format: cell-based; details: 3 weeks exposure
Source text: as §1

[7] = tested on: Chaetomium globosum ATCC 6205; assay: Stick test on treated Scots Pine; format: cell-based; details: 3 weeks exposure
Source text: as §1

[8] = tested on: Trichoderma sp. isol. MB test; assay: Stick test on treated Scots Pine; format: cell-based; details: 3 weeks exposure
Source text: as §1

[9] = tested on: Cladosporium cladosporioides IHEM 3795; assay: Stick test on treated Scots Pine; format: cell-based; details: 3 weeks exposure
Source text: as §1

[10] = tested on: Aspergillus niger CBS 554.65; assay: Stick test on treated Scots Pine; format: cell-based; details: 3 weeks exposure
Source text: as §1

Humicola grisea MG 28 = assay: Stick test on treated Scots Pine; format: cell-based; details: 3 weeks exposure
Source text: as §1

[11] = tested on: Coniophora puteana BAM 15; assay: Stick test on treated Scots Pine; format: cell-based; details: 3 weeks exposure
Source text: as §1

[12] = tested on: Humicola grisea MG 28 (Hg); assay: Poison plate assay; format: cell-based; details: 168 h, evaluated after one week
[13] = tested on: Chaetomium globosum CEB 1218.2 (Cg); assay: Poison plate assay; format: cell-based; set-up: key: When no fungal growth was observed, the abbreviation “ng” was used; details: evaluated after one week

| Compound | MIC ([2]; medium CDA) | MIC ([2]; medium GA) | MIC ([2]; medium GGA) | MIC ([3]; medium CDA) | MIC ([3]; medium GA) | MIC ([3]; medium GGA) | Threshold value, T. viride ([4]; medium GA) | Threshold value, T. viride ([4]; medium PDA) | Threshold value, A. pullulans ([5]; medium GA) | Threshold value, A. pullulans ([5]; medium PDA) | Threshold value, C. versicolor ([6]; medium GA) | Threshold value, C. versicolor ([6]; medium PDA) | Threshold value, C. globosum ([7]; medium GA) | Threshold value, C. globosum ([7]; medium PDA) | Threshold value, T. sp. ([8]; medium GA) | Threshold value, T. sp. ([8]; medium PDA) | Threshold value, C. cladosporioides ([9]; medium GA) | Threshold value, C. cladosporioides ([9]; medium PDA) | Threshold value, A. niger ([10]; medium GA) | Threshold value, A. niger ([10]; medium PDA) | other results |
| --- | --- | --- | --- | --- | --- | --- | --- | --- | --- | --- | --- | --- | --- | --- | --- | --- | --- | --- | --- | --- | --- |
| COC(=O)Nc1nc2ccccc2[nH]1 [carbendazim] | – | – | – | – | – | – | – | – | – | – | – | – | – | – | – | – | – | – | – | – | Control of Aspergillus spp. infection [1]: ineffective |
| Cc1cc(C2CC2)nc(Nc2ccccc2)n1 [cyprodinil, 4-cyclopropyl-6-methyl-N-phenyl-2-pyrimidinamine] | 5 µg/mL (≈ 22.2 µM) | 10 µg/mL (≈ 44.4 µM) | 5 µg/mL (≈ 22.2 µM) | < 0.6 µg/mL | < 0.6 µg/mL | < 0.6 µg/mL | >6400 ppm | >6400 ppm | 3200-6400 ppm | >6400 ppm | >6400 ppm | >6400 ppm | 100-200 ppm | 1600-3200 ppm | >6400 ppm | >6400 ppm | 800-1600 ppm | >6400 ppm | >6400 ppm | >6400 ppm | Threshold value, H. grisea (Humicola grisea MG 28; medium GA): 200-400 ppm; Threshold value, H. grisea (Humicola grisea MG 28; medium PDA): 800-1600 ppm; Threshold value, C. puteana ([11]; medium GA): 3200-6400 ppm; Threshold value, C. puteana ([11]; medium PDA): >6400 ppm; MIC ([12]; medium CDA): 10 µg/mL (≈ 44.4 µM); MIC ([12]; medium GA): 10 µg/mL (≈ 44.4 µM); MIC ([12]; medium GGA): 20 µg/mL (≈ 88.8 µM); MIC value, Cg ([13]; medium CDA): ng; MIC value, Cg ([13]; medium GA): ng; MIC value, Cg ([13]; medium GGA): ng |
| CC#Cc1cc(C)nc(Nc2ccccc2)n1 [mepanipyrim, 4-methyl-6-(prop-1-ynyl)-N-phenyl-2-pyrimidinamine] | 10 µg/mL (≈ 44.8 µM) | 20 µg/mL (≈ 89.6 µM) | 20 µg/mL (≈ 89.6 µM) | < 0.6 µg/mL | < 0.6 µg/mL | < 0.6 µg/mL | >6400 ppm | >6400 ppm | >6400 ppm | >6400 ppm | >6400 ppm | >6400 ppm | 200-400 ppm | >6400 ppm | >6400 ppm | >6400 ppm | >6400 ppm | >6400 ppm | >6400 ppm | 1600-3200 ppm | Threshold value, H. grisea (Humicola grisea MG 28; medium GA): 200-400 ppm; Threshold value, H. grisea (Humicola grisea MG 28; medium PDA): >6400 ppm; Threshold value, C. puteana ([11]; medium GA): >6400 ppm; Threshold value, C. puteana ([11]; medium PDA): >6400 ppm; MIC ([12]; medium CDA): 10 µg/mL (≈ 44.8 µM); MIC ([12]; medium GA): 20 µg/mL (≈ 89.6 µM); MIC ([12]; medium GGA): 20 µg/mL (≈ 89.6 µM); MIC value, Cg ([13]; medium CDA): ng; MIC value, Cg ([13]; medium GA): ng; MIC value, Cg ([13]; medium GGA): ng |
| Cc1cc(C)nc(Nc2ccccc2)n1 [pyrimethanil, 4,6-dimethyl-N-phenyl-2-pyrimidinamine] | 20 µg/mL (≈ 100 µM) | 20 µg/mL (≈ 100 µM) | 20 µg/mL (≈ 100 µM) | < 0.6 µg/mL | < 0.6 µg/mL | 20 µg/mL (≈ 100 µM) | >6400 ppm | >6400 ppm | 1600-3200 ppm | >6400 ppm | >6400 ppm | >6400 ppm | 800-1600 ppm | >6400 ppm | >6400 ppm | >6400 ppm | 1600-3200 ppm | >6400 ppm | >6400 ppm | >6400 ppm | Threshold value, H. grisea (Humicola grisea MG 28; medium GA): 800-1600 ppm; Threshold value, H. grisea (Humicola grisea MG 28; medium PDA): 1600-3200 ppm; Threshold value, C. puteana ([11]; medium GA): >6400 ppm; Threshold value, C. puteana ([11]; medium PDA): >6400 ppm; MIC ([12]; medium CDA): > 20 µg/mL; MIC ([12]; medium GA): > 20 µg/mL; MIC ([12]; medium GGA): > 20 µg/mL; MIC value, Cg ([13]; medium CDA): ng; MIC value, Cg ([13]; medium GA): ng; MIC value, Cg ([13]; medium GGA): ng |
